Test system: Sprague Dawley (SD) rats
Assay: Effects of compounds for reducing urinary phosphate levels in rats fed treatment diet
Type: in vivo, rat
Details: male SD rats; for Urinary Phosphate: urine collected on days 5 and 6
Procedure: House male Sprague Dawley (SD) rats were used for the experiments. The rats were placed singly in wire-bottom cages, fed with Purina 5002 diet, and allowed to acclimate for at least 5 days prior to experimental use.
To establish baseline phosphorus excretion, the rats were placed in metabolic cages for 48 hours. Their urine was collected and its phosphorus content analyzed with a Hitachi analyzer to determine phosphorus excretion in mg/day. Any rats with outlying values were excluded; and the remainder of the rats was distributed into groups.
Purina 5002 was used as the standard diet. The compound or compound mixture being tested was mixed with Purina 5002 to result in a final concentration 0.5% (or as indicated in the table) by weight. Cellulose at 0.5% by weight was used as a negative control. For each rat, 200 g of diet was prepared.
Each rat was weighed and placed on the standard diet. After 4 days the standard diet was replaced with the treatment diet (or control diet for the control group). On days 5 and 6, urine samples from the rats at 24 hours (+/−30 minutes) were collected and analyzed. The test rats were again weighed, and any weight loss or gain was calculated. Any remaining food was also weighed to calculate the amount of food consumed per day. A change in phosphorus excretion relative to baseline and cellulose negative control was calculated using Excel program.

[1] = 0.5% of diet, urinary phosphorus excretion relative to baseline and cellulose negative control
[2] = compound mixed with Purina 5002 diet at 0.5% by weight

Row | Compound | % Control [1] | Urinary Phosphate [2] | % Control (0.30% of diet, relative to baseline and cellulose negative control) | Urinary Phosphate (0.30% of diet) | % Control (0.5% of diet, urinary phosphorus excretion relative to baseline and cellulose negative control, listed as Iron(II) Acetate) | % Control (0.7% of diet, relative to baseline and cellulose negative control) | Urinary Phosphate (0.7% of diet) | Urinary Phosphate (compound mixed with Purina 5002 diet at 0.5% by weight, listed as Iron(II) Acetate)
1 | CC(=O)/C=C(/C)O.CC(=O)/C=C(/C)O.[Fe] [Fe(II) acetylacetonato] | 55.6% | 10.4 mg/day |  |  |  |  |  | 
2 | CC(=O)[O-].CC(=O)[O-].[Fe+2] [Iron(II) acetate, iron(II) acetate] | 65.9% | 12.8 mg/day | 67.4% | 12.1 mg/day | 69.1% | 44.4% | 8.0 mg/day | 12.4 mg/day
3 | O=C([O-])C(=O)[O-].[Fe+2] [Iron(II) oxalate, iron(II) oxalate] | 89.0% | 14.8 mg/day |  |  |  |  |  | 
4 | [Fe+2].[O-2] [Iron(II)oxide, iron(II) oxide] | 104.3% | 20.2 mg/day |  |  |  |  |  | 
5 | (+)-iron(II) L-ascorbate | 78.6% | 13.4 mg/day |  |  |  |  |  | 

From US20130243720A1, “Iron(II)-Containing A Treatments for Hyperphosphatemia” (priority 2006, published 2013)
